Patent publication US20070027175A1, “Antineoplastic activities of ellipticine and its derivatives” (priority 2005, published 2007)
pIC50: −log10 of the molar value.

Tests used:
CAG myeloma cell line = assay: CellTiter-Glo luminescent cell viability assay, CAG; type: cell-based, human; set-up: unit of the concentration uncertain
Procedure: (§1) The dosage of each derivative was set at 2, 0.2 and 0.02 mM. A cell culture medium control and 0.5% DMSO control was maintained in each experiment. The cell viability was tested each day over a period of five days using the CellTiter-Glo luminescent cell viability assay kit from Promega Co.
(§2) Cell Titer-Glo luminescent cell viability assay kit from Promega Co (Madison, Wis.) was used to determine cell growth inhibition by the various compounds tested. The kit determines cell viability by quantifying the amount of ATP present in the cell culture medium. Presence of ATP signals the presence of metabolically active cells (3). The intensity of luminescence was measured by a computerized luminometer (Promega, Co. Madison, Wis.). Each well was read five times within 30 minutes of adding Cell Titer-Glo reagent mixture.
Cells were contacted with the antineoplastic agents in ninety six well culture plates. The concentration of each neoplastic agent was maintained a constant. A cell culture medium control and 0.5% DMSO control were maintained in each set of experiments. The cell viability was tested every day using the CellTiter-Glo luminescent cell viability kit from Promega Co. (Madison, Wis.) for a period of five days.

[1] = system: RPMI8226 myeloma cell line; assay: CellTiter-Glo luminescent cell viability assay, RPMI8226; type: cell-based, human; set-up: unit of the concentration uncertain
Procedure: as §1
as §2, with “mixture. […]” for “mixture.”

RPMI 8226 cells = assay: Drug resistance and cytotoxicity MTT assay, RPMI 8226; type: cell-based, human; settings: 96 hours
Procedure: (§3) FIGS. 13A-13B show dose response of RPMI 8226 and 8226/Dox1V myeloma cells to EPED3 (FIG. 13A) or Dox (FIG. 13B). Cells were incubated for 96 hours with drug concentrations as indicated and analyzed by MTT assays; linear regression analysis was used to determine the IC50 for each drug (EPED3, FIG. 13A; Dox, FIG. 13B) and each cell line (RPMI8226, squares; 8226/Dox1V, circles). Data are presented as the mean of four independent experiments.
(§4) The 8226/Dox1V and its parental line, RPMI 8226, cells were plated in 96-well plates at 10,000 cells/well and incubated with serial dilutions of EPED3 or Dox, as previously described (Landowski et al., 1999). After 96 hours incubation at 37° C., MTT was added to each well at a final concentration of 20 μg/ml and incubated an additional 4 hours. Plates were centrifuged and the media replaced with 0.1 ml DMSO to solublize the formazan complex. Optical density was measured at 540 nm using a Bio-Tek microplate spectrophotometer. IC50 values were calculated by linear regression analysis (Origins® Software Technologies, Inc.) of the log-linear plot for percent survival versus log drug concentration.
In drug resistance studies, the efficacy of EPED3 with 8226/Dox1V cells and the parental line, RPMI 8226 cells was investigated. Both cell lines were treated with either EPED3 or Dox, and the MTT assays were used to assess cell growth. […]

8226/Dox1V cells = assay: Drug resistance and cytotoxicity MTT assay, 8226/Dox1V; type: cell-based, human
Procedure: as §3
The 8226/Dox1V cell line was established by chronic exposure to Dox in presence of P-glycoprotein inhibitor, verapamil and was characterized by reduced expression and activity of topo II (Futscher et al., 1993).
as §4
In drug resistance studies, the efficacy of EPED3 with 8226/Dox1V cells and the parental line, RPMI 8226 cells was investigated. Both cell lines were treated with either EPED3 or Dox, and the MTT assays were used to assess cell growth. Linear regression analysis of 96-hour dose-response curves was used to compare cytotoxicity of EPED3 in 8226/Dox1V and RPMI 8226 cell lines.

[2] = system: myeloma cell lines (JJN3, L363, OCI-MY5, and U266); assay: MTT comparison with clinical anti-myeloma agents, four cell lines; type: cell-based, human; settings: 24 and 48 hours
Procedure: Myeloma cells were suspended in fresh medium at […] and seeded into 96-well plates in 50-μl aliquots (10,000 cells/well). After treating cells in each well with the appropriate compound (50-μl aliquots of 2× stock solution) and medium control, the methylthiazolyldiphenyl-tetrazolium bromide (MTT) assay kit (Promega, Madison, Wis.) was used to determine cell proliferation, according to manufacturer's instructions. Briefly, dye solution was added to each well (15 μl/well) and incubated for 4 hours at 37° C. and 5% CO2; 100 μl of the solubilization solution/stop mix was then added. The plates were read at 570 nm in a plate reader, and the A570 nm values were corrected by A650 nm. All experiments were conducted in triplicate.
In vitro comparison of EPED3 to ellipticine and four anti-myeloma agents commonly used in clinical treatment regimens was carried out with four myeloma cell lines (JJN3, L363, OCI-MY5, and U266). EPED3, ellipticine, Dox, dexamethasome, VP-16-213, and Velcade were applied in a two-fold dilution series ranging from 0.1 to 6.4 μM. Cell proliferation was assessed using MTT assays 24 and 48 hours after initiating treatments.

NCI-60 cancer panel = settings: average across the cell lines of the concentration at which growth is inhibited 50%; unit in the High Conc. footnote; cited from earlier work
myeloma cells = assay: Velcade sensitivity of myeloma cells without and with stromal co-culture; type: cell-based, human
Description: The bone marrow microenvironment augments myelomagenesis and can protect myeloma cells from destruction when patients undergo systemic and supportive therapies. In vitro, via direct cell-cell adhesion or soluble factors generated by […] interactions, myeloma cells are reportedly well protected from chemotherapeutic agents (Nefedova et al., 2001).

SMILES: Cc1c2ccncc2c(C)c2c1[nH]c1ccc(OCCN(C)C)cc12 [NSC 338258, ellipticine, 9-dimethyl amino-ethoxy-]
- cell viability (CellTiter-Glo luminescent assay) (CAG myeloma cell line; 0.02 (unit uncertain), Day 1): 173,140
- cell viability (CellTiter-Glo luminescent assay) (CAG myeloma cell line; 0.02 (unit uncertain), Day 2): 383,737
- cell viability (CellTiter-Glo luminescent assay) (CAG myeloma cell line; 0.02 (unit uncertain), Day 3): 780,458
- cell viability (CellTiter-Glo luminescent assay) (CAG myeloma cell line; 0.02 (unit uncertain), Day 4): 1,670,491
- cell viability (CellTiter-Glo luminescent assay) (CAG myeloma cell line; 0.02 (unit uncertain), Day 5): 3,108,577
- cell viability (CellTiter-Glo luminescent assay) (CAG myeloma cell line; 0.2 (unit uncertain), Day 1): 103,658
- cell viability (CellTiter-Glo luminescent assay) (CAG myeloma cell line; 0.2 (unit uncertain), Day 2): 105,998
- cell viability (CellTiter-Glo luminescent assay) (CAG myeloma cell line; 0.2 (unit uncertain), Day 3): 111,306
- cell viability (CellTiter-Glo luminescent assay) (CAG myeloma cell line; 0.2 (unit uncertain), Day 4): 123,316
- cell viability (CellTiter-Glo luminescent assay) (CAG myeloma cell line; 0.2 (unit uncertain), Day 5): 64,052
- cell viability (CellTiter-Glo luminescent assay) (CAG myeloma cell line; 2 (unit uncertain), Day 1): 76,441
- cell viability (CellTiter-Glo luminescent assay) (CAG myeloma cell line; 2 (unit uncertain), Day 2): 39,273
- cell viability (CellTiter-Glo luminescent assay) (CAG myeloma cell line; 2 (unit uncertain), Day 3): 23,807
- cell viability (CellTiter-Glo luminescent assay) (CAG myeloma cell line; 2 (unit uncertain), Day 4): 19,546
- cell viability (CellTiter-Glo luminescent assay) (CAG myeloma cell line; 2 (unit uncertain), Day 5): 5,483
- cell viability (CellTiter-Glo luminescent assay) ([1]; 0.02 (unit uncertain), Day 1): 94,826
- cell viability (CellTiter-Glo luminescent assay) ([1]; 0.02 (unit uncertain), Day 2): 180,382
- cell viability (CellTiter-Glo luminescent assay) ([1]; 0.02 (unit uncertain), Day 3): 302,609
- cell viability (CellTiter-Glo luminescent assay) ([1]; 0.02 (unit uncertain), Day 4): 516,569
- cell viability (CellTiter-Glo luminescent assay) ([1]; 0.02 (unit uncertain), Day 5): 777,427
- cell viability (CellTiter-Glo luminescent assay) ([1]; 0.2 (unit uncertain), Day 1): 3,790
- cell viability (CellTiter-Glo luminescent assay) ([1]; 0.2 (unit uncertain), Day 2): 2,320
- cell viability (CellTiter-Glo luminescent assay) ([1]; 0.2 (unit uncertain), Day 3): 1,254
- cell viability (CellTiter-Glo luminescent assay) ([1]; 0.2 (unit uncertain), Day 4): 1,026
- cell viability (CellTiter-Glo luminescent assay) ([1]; 0.2 (unit uncertain), Day 5): 321
- cell viability (CellTiter-Glo luminescent assay) ([1]; 2 (unit uncertain), Day 1): 4,685
- cell viability (CellTiter-Glo luminescent assay) ([1]; 2 (unit uncertain), Day 2): 923
- cell viability (CellTiter-Glo luminescent assay) ([1]; 2 (unit uncertain), Day 3): 871
- cell viability (CellTiter-Glo luminescent assay) ([1]; 2 (unit uncertain), Day 4): 234
- cell viability (CellTiter-Glo luminescent assay) ([1]; 2 (unit uncertain), Day 5): 104
- pIC50 (RPMI 8226 cells): 6.82
- pIC50 (8226/Dox1V cells; 8226/Dox1V, 96 hours): 6.88
- resistance of 8226/Dox1V versus parental RPMI 8226 (8226/Dox1V cells; ratio of IC50, 96 hours): no significant resistance
- concentration at which cell viability is inhibited as effectively as Velcade [2]: 0.4 µM
- Mean GI50 (NCI-60 cancer panel): −6.57 log^10 molar

SMILES: CC(C)C[C@H](NC(=O)[C@H](Cc1ccccc1)NC(=O)c1cnccn1)B(O)O [Velcade, bortezomib, reference compound]
- effective low dose (myeloma cells; absence of stromal cells): 4 nM
- reduction in sensitivity (myeloma cells; co-culture versus absence of stromal cells, data not shown): more than 100 fold
- tolerance of myeloma cells to Velcade (myeloma cells; co-culture with human fetal bone mesenchymal cells, data not shown): up to 500 nM
